In general, EC50 refers to the concentration needed to bring the measured effect to its halfway point.

Experimental findings from patent US20050113283A1, “Methods of treating conditions associated with an EDG-4 receptor” (priority 2002, published 2005) are described below.

In one test the target is T1, PLA2-II (Crotalus atrox, UniProt P00624).
T1 construct: Source: Crotalus atrox; from tissue
T1 sequence (P00624 17-138): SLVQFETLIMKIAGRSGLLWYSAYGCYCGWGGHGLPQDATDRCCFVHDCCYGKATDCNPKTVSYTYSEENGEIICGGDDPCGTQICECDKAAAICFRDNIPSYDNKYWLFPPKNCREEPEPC
The test is described as follows: Enzyme assay Phospholipase PLA2-II. In kind it is biochemical. The following applies: 300 μM; significance >50%. How it is done:
8. Phospholipase PLA2-II (Katsumata et al., 1986, Anal. Biochem. 154:676-681).
Substrate: 0.03 μCi 1 -Palmitoyl-2-[1-^14C]oleoyl-3-phosphatidylcholine
Pre-Incubation Time/Temp: 5 minutes at 37° C.
Incubation Time/Temp: 5 minutes at 37° C.
Incubation Buffer: 0.1M glycine-NaOH, […], pH 9.0
Quantitation Method: Quantitation of [^14C]oleate
Significance Criteria: >50% of max stimulation or inhibition

Test [1] relates to human Edg-4 receptor. The test is described as follows: Calcium mobilization assay (FLIPR), HTC rat hepatoma cells transfected with human Edg-4. The format is cell-based. The following applies: Edg-4 relative to other Edg receptors. The source says:
(§1) LPA receptors such as Edg-4, couple to calcium effector pathways, and result in increases in intracellular calcium following receptor activation (An et al., Molecular Pharmacology, 54:881-888, 1998, incorporated herein by reference). This biological response lends itself to a very efficient, high-throughput screen using a Fluorescence Imaging Plate Reader (FLIPR; Molecular Devices, Sunnyvale, Calif.). The FLIPR system is a real-time, cell-based assay system with continuous fluorescence detection using a cooled CCD camera. The FLIPR system was used to developing an Edg-4 receptor screen. Rat hepatoma cells stably expressing Edg-4 receptor were plated on 384-well plates and loaded with a calcium dye loading kit (Molecular Devices, Sunnyvale, Calif.) for 1 hour at room temperature. Cells were then placed on the FLIPR^354 (Molecular Devices, Sunnyvale, Calif.) and excited by an argon laser at 488 nm. The data for the entire 384-well plate was updated every second. An integrated robotic pipettor allowed for simultaneous compound addition into each individual well in the plate.
In general terms: Calcium assays in cells follow changes in intracellular calcium, usually with a dye or a luminescent sensor.

The target in the next test is T2, Potassium channel [KATP] (Cricetus cricetus, UniProt Q09427).
T2 construct: endogenous in cells; host or cells: HIT-T15 Syrian hamster pancreatic beta cells
T2 sequence (Q09427 whole entry): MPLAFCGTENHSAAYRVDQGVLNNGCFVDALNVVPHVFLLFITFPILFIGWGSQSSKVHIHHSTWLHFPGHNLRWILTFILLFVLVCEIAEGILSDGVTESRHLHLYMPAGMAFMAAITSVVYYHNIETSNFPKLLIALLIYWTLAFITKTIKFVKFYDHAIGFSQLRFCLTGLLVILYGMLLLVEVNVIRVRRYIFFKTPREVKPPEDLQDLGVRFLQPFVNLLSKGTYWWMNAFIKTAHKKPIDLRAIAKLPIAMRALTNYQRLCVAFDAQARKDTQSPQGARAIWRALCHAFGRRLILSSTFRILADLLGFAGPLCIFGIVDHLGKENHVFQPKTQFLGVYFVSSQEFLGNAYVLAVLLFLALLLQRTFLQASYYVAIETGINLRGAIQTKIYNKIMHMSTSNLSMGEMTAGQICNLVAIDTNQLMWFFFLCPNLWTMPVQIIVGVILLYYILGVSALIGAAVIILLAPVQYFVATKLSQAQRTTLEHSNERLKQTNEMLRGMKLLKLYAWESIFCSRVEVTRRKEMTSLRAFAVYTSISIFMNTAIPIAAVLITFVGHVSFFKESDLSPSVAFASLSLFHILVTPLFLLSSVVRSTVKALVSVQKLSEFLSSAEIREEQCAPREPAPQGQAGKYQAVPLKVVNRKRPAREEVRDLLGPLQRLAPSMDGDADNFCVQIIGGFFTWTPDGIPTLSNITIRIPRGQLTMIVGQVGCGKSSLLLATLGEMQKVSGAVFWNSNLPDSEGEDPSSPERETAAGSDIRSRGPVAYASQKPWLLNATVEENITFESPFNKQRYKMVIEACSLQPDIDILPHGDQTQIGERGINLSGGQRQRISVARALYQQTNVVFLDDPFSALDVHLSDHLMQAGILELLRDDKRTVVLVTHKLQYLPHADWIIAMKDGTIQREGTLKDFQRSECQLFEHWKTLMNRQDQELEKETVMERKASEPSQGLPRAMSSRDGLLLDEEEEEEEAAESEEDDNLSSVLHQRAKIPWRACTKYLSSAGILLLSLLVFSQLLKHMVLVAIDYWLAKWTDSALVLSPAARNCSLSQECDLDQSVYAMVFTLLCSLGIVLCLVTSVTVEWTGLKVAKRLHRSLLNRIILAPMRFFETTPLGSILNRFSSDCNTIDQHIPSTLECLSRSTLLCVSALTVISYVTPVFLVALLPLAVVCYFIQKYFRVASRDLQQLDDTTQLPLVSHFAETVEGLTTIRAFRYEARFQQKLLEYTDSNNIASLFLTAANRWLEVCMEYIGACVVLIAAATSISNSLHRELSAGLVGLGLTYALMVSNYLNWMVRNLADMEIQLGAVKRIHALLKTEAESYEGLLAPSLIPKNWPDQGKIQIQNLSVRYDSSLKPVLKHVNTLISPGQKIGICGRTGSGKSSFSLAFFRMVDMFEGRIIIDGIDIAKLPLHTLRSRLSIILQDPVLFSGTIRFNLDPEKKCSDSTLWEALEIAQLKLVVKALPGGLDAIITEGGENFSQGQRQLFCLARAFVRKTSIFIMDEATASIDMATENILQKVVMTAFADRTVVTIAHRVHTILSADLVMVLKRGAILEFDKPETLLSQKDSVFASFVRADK
Kind of test: Radioligand binding Potassium Channel [KATP]. Further details: species or system Syrian hamster. Particulars: 10 μM; significance ≧50%. Here is the method: Source: Syrian hamster pancreatic beta cells HIT-T15
Ligand: 5 nM ^3H Glyburide
Incubation Time/Temp: 2 hours at 25° C.
Incubation Buffer: 50 mM MOPS, 0.1 mM CaCl2, pH 7.4
NonSpecific Ligand: 10 μM Glyburide
Quantitation Method: Radioligand Binding
Significance Criteria: ≧50% of max stimulation or inhibition

Another test deals with T3, PLC (Bacillus cereus, UniProt P09598).
T3 construct: Source: Bacillus cereus; host or cells: Bacillus cereus
T3 sequence (P09598 39-283 limits assumed): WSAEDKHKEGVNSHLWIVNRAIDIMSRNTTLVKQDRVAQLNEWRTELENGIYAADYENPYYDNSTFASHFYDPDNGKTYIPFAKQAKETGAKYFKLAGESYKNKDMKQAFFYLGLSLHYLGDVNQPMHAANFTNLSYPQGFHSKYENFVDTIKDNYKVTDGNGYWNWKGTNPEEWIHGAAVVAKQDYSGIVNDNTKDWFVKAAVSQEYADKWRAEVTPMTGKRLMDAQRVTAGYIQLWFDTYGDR
The test is described as follows: Enzyme assay Phospholipase PLC. The format is biochemical. Particulars: 10 μM. Here is the method:
9. Phospholipase PLC (Hergenrother et al, 1995, Anal. Biochem. 229:313-316).
Substrate: 400 μM 1,2-Dihexanoyl sn-glycerol-3-phosphocholine
Pre-Incubation Time/Temp: 10 minutes at 37° C.
Incubation Time/Temp: 5 minutes at 37 ° C.
Incubation Buffer: 0.1 M 3,3-dimethylglutaric acid, pH 7.3
Quantitation Method: Spectrophotometric quantitation of phosphorylcholine

Test [2] has as its system human ovarian tumor growth within the chamber. The test is described as follows: In vivo Z-chamber study. The following applies: rats, 5 mg/kg every other day, harvested day 16, FIG. 14. Further details: species or system rat. How it is done:
The Z-chamber assay is a fibrin-based in vivo assay, wherein fibrin and thrombin are added through a port in a two-sided chamber sealed by a nylon mesh. The chamber is implanted in the subcutaneous space of an animal and harvested for evaluation. Fibrin matrices are formed in normal wound healing and are used by tumors to sustain growth, thus Z-chambers are designed to study, for example, angiogenesis, wound healing, and tumor growth. In addition, their design is useful, for example, in studies of localized gene expression, stem cell, adenoviral, and tissue generation.
The efficacy of 101 in an in vivo tumor model was examined by Z-chamber® (SRI, Menlo Park, Calif.) study. Each tumor chamber consisted of 150-160 μl cell suspension made by suspending 190 million cells in 20 ml fibrin (4 mg/ml). Following the introduction of cell suspension, 2 units of thrombin was added into each chamber and the mixture was allowed to gel for 5-7 minutes before implantation.
Rats were anesthetized with Nembutal (35 mg/kg). The skin of rats was surgically prepared with 70% alcohol. […]
101 was dissolved in a 1 to 1 cremophor:ethanol solution and diluted 4 times with 5% dextrose on water. […] The tumor thickness was measured and compared to a negative control, i.e., chambers with no treatment, and the positive treatment. […]

The target in a further test is T4, Edg-2 (Homo sapiens, UniProt Q92633).
T4 construct: expressed in transfected cells; host or cells: HTC rat hepatoma cells (from the earlier reading)
T4 sequence (Q92633 whole entry): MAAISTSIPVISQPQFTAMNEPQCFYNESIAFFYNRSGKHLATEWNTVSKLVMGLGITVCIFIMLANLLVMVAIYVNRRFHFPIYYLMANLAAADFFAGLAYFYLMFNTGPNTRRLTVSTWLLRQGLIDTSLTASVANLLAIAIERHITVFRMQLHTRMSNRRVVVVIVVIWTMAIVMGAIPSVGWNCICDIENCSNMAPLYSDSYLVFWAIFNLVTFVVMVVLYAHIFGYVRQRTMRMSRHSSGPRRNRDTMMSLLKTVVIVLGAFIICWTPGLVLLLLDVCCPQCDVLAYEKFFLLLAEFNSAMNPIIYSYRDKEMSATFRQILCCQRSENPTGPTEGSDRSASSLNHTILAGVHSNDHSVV
The test is described as follows: Calcium mobilization assay (FLIPR), HTC cells expressing Edg 2. Particulars: agonist. In kind it is cell-based.

The next test deals with T5, Edg-1 (Homo sapiens, UniProt P21453).
T5 construct: expressed in transfected cells; host or cells: HTC rat hepatoma cells (from the earlier reading)
T5 sequence (P21453 whole entry): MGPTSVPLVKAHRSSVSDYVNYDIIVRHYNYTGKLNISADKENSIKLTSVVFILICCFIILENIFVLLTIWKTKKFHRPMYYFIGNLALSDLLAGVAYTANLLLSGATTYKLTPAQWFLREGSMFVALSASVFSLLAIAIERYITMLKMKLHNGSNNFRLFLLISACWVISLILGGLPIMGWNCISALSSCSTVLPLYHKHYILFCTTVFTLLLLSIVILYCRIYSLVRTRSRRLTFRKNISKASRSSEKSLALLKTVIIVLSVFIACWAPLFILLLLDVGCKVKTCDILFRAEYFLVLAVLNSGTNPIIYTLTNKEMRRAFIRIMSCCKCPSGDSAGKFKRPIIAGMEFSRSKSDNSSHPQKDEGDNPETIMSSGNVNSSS
Kind of test: Calcium mobilization assay (FLIPR), HTC cells expressing Edg 1. In kind it is cell-based. Particulars: agonist.

For the next test, the target named is T6, Edg-8 (Homo sapiens, UniProt Q9H228).
T6 construct: expressed in transfected cells; host or cells: HTC rat hepatoma cells (from the earlier reading)
T6 sequence (Q9H228 whole entry): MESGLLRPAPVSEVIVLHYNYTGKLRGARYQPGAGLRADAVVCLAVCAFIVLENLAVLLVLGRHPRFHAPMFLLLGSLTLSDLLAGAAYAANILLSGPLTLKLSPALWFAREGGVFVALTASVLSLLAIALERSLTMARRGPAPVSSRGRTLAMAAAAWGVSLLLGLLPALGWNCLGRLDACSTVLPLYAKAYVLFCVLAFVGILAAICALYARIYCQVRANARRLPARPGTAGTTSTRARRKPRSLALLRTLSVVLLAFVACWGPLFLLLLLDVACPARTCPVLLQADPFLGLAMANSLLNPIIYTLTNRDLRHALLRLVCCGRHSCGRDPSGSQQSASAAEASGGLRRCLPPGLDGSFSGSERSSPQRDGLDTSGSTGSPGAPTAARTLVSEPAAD
The test is described as follows: Calcium mobilization assay (FLIPR), HTC cells expressing Edg 8. The format is cell-based. Particulars: agonist.

The nature of test [3]: Calcium mobilization assay, Null. In kind it is cell-based. The following applies: agonist.
From the text: as §1

The next test has as its target T7, Edg-7 (Homo sapiens, UniProt Q9UBY5).
T7 construct: expressed in transfected cells; host or cells: HTC rat hepatoma cells (from the earlier reading)
T7 sequence (Q9UBY5 1-353): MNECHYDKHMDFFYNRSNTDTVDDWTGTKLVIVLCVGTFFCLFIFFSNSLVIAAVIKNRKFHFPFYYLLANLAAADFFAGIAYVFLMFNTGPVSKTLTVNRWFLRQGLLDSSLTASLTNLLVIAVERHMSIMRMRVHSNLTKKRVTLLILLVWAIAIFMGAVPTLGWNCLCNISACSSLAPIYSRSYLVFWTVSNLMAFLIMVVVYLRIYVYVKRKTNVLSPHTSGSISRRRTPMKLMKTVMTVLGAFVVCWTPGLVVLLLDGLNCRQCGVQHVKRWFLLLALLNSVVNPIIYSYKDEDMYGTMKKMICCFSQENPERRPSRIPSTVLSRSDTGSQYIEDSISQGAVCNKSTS
Kind of test: Calcium mobilization assay (FLIPR), HTC cells expressing Edg 7. The format is cell-based.

In a further test the target is T8, Edg-6 (Homo sapiens, UniProt O95977).
T8 construct: expressed in transfected cells; host or cells: HTC rat hepatoma cells (from the earlier reading)
T8 sequence (O95977 1-384): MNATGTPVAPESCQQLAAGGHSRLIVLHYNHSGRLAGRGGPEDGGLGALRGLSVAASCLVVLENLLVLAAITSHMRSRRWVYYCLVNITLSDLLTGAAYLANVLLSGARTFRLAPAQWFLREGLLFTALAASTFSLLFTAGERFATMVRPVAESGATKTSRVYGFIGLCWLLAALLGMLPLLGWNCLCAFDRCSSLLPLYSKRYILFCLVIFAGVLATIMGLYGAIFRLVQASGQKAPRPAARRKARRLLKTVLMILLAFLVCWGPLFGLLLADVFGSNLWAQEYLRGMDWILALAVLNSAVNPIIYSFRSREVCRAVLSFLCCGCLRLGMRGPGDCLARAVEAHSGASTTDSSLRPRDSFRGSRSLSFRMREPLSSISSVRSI
Kind of test: Calcium mobilization assay (FLIPR), HTC cells expressing Edg 6. In kind it is cell-based. The following applies: agonist.

Test [4] has as its target T9, human Edg-4 receptor (Homo sapiens, UniProt Q9HBW0).
T9 construct: IC50 Edg-4; other: agonist, calcium mobilization; potency relative to compound 101; calcium response (agonist)
Kind of test: Calcium mobilization assay (FLIPR), HTC rat hepatoma cells transfected with human Edg-4. In kind it is cell-based.
From the text: as §1

For test [5], the system named is CaOV3 human ovarian cancer cells. The test is described as follows: Calcium response in CaOV3 cells. In kind it is cell-based. The following applies: CaOV3, naturally express human Edg-4, FIG. 16.
The target of another test is T10, Edg-3 (Homo sapiens, UniProt Q99500).
T10 construct: expressed in transfected cells; host or cells: HTC rat hepatoma cells (from the earlier reading)
T10 sequence (Q99500 whole entry): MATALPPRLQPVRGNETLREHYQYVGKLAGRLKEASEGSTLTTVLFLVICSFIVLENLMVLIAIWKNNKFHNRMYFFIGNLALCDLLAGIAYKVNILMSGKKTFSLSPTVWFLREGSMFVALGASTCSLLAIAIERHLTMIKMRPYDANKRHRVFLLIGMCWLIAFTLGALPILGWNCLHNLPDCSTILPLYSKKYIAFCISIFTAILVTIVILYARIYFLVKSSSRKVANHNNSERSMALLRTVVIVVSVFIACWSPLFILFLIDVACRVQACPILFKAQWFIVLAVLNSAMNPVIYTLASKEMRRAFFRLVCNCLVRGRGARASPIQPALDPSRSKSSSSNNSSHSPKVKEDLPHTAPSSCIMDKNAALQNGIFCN
Kind of test: Calcium mobilization assay (FLIPR), HTC cells expressing Edg 3. The format is cell-based. Particulars: agonist.

Another test deals with T11, Edg-5 (Homo sapiens, UniProt O95136).
T11 construct: expressed in transfected cells; host or cells: HTC rat hepatoma cells (from the earlier reading)
T11 sequence (O95136 whole entry): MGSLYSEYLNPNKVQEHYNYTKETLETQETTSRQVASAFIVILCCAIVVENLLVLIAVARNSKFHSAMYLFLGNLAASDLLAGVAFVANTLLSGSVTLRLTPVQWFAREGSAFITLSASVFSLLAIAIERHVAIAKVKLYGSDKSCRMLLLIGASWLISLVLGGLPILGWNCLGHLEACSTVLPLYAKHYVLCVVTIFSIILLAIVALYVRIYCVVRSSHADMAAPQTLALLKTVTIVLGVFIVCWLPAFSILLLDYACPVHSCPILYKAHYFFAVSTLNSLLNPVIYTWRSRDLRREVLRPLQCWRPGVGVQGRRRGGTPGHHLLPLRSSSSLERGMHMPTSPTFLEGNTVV
The test is described as follows: Calcium mobilization assay (FLIPR), HTC cells expressing Edg 5. The format is cell-based. The following applies: agonist.

T9 sequence (Q9HBW0 1-340 limits assumed): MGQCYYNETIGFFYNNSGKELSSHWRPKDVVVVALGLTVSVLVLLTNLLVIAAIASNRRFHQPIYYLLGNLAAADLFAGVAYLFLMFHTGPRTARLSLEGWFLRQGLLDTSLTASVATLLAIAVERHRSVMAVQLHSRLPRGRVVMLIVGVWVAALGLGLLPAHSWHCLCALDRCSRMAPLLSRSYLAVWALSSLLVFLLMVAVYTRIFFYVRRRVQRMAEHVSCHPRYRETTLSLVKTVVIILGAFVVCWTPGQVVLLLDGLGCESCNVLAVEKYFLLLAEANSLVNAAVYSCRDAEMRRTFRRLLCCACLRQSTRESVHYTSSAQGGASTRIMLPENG

`O=C(CC(=O)C(F)(F)F)Nc1cc(-c2ccccc2)n[nH]1` [Compound 101, 4,4,4-trifluoro-3-oxo-N-(5-phenyl-2H-pyrazol-3-yl)-butyramide]: the “activity at PLA2-II” value at PLA2-II was “no significant activity”. The “Fold-selectivity for Edg-4 (IC50)” value in the test on human Edg-4 receptor [1] (antagonists) is listed as more than 29.9. For the same compound, the “activity at Potassium channel [KATP]” value at Potassium channel [KATP] is “no significant activity”. Besides, the “activity at PLC” value at PLC is recorded as “no significant activity”.

Consider `CC(=O)O[C@H]1C(=O)[C@@]2(C)[C@H]([C@H](OC(=O)c3ccccc3)[C@]3(O)C[C@H](OC(=O)[C@H](O)[C@@H](NC(=O)c4ccccc4)c4ccccc4)C(C)=C1C3(C)C)[C@]1(OC(C)=O)CO[C@@H]1C[C@@H]2O` [Taxol], for which the “inhibition of tumor growth (positive control)” value in [2] is given as “inhibition of tumor growth”.

For the compound `COc1cc2c(cc1OC)C(c1c(Cl)cccc1Cl)NC(=O)C2` (stereo not drawn) [Compound 125, 1-(2,6-dichlorophenyl)-6,7-dimethoxy-1,4-dihydro-2H-isoguinolin-3-one], the EC50 on Edg-2 is more than 25 µM; on Edg-1, more than 25 µM; at Edg-8, more than 25 µM; in [3] it was more than 25 µM; on Edg-7 (agonist, calcium mobilization), 2500 nM; at Edg-6, more than 25 µM. For the same compound, the EC50 on human Edg-4 receptor [4] (agonist, calcium mobilization) was 5.2 µM; on Edg-3 it was more than 25 µM; at Edg-5, more than 25 µM. In addition, the “agonist activity at the Edg-7 receptor” value on Edg-7 is listed as “acts as an agonist”. Moreover, in the test with human Edg-4 receptor [1] (agonists), the “Fold Selectivity for Edg-4 (EC50)” value is on record as more than 4.8. Moreover, the “calcium response (agonist)” value at human Edg-4 receptor [4] (HTC cells transfected with human Edg-4, FIG. 15) is “elicits a calcium response”. In addition, the “calcium response elicited by 125, inhibited by antagonist 103” value in test [5] is listed as “specificity is also observed”.
